SMILES strings stand for the structures. Read-outs that look alike come from different tables or passages of the source.

Consider 22 compounds from patent US11566002B2, “Substituted tetrahydrocyclopenta[C]pyrroles, substituted dihydropyrrolizines, analogues thereof, and methods using same” (priority 2018, dated 2023).

The test has as its system HBV rcDNA. The test can be described thus: HepDE19 assay with bDNA quantitation of HBV rcDNA. It is filed as cell-based, hepatitis B virus. The method, then:
HepDE19 Assay with bDNA Quantitation of HBV rcDNA:
HepDE19 cell culture system is a HepG2 (human hepatocarcinoma) derived cell line that supports HBV DNA replication and cccDNA formation in a tetracycline (Tet)-regulated manner and produces HBV rcDNA and a detectable reporter molecule dependent on the production and maintenance of cccDNA (Guo, et al., 2007, J. Virol. 81:12472-12484).
HepDE19 (50,000 cells/well) were plated in 96-well collagen-coated tissue-culture treated microtiter plates in DMEM/F12 medium supplemented with 10% fetal bovine serum, 1% penicillin-streptomycin and 1 μg/mL tetracycline and incubated in a humidified incubator at 37° C. and 5% CO2 overnight. Next day, the cells were switched to fresh medium without tetracycline and incubated for 4 hours at 37° C. and 5% CO2. The cells were treated with fresh Tet-free medium with compounds at concentrations starting at 25 μM and a serial, ½ log, 8-point, titration series in duplicate. The final DMSO concentration in the assay was 0.5%. The plates were incubated for 7 days in a humidified incubator at 37° C. and 5% CO2. Following a 7 day-incubation, the level of rcDNA present in the inhibitor-treated wells was measured using a Quantigene 2.0 bDNA assay kit (Affymetrix, Santa Clara, Calif.) with HBV specific custom probe set and manufacturers instructions. Concurrently, the effect of compounds on cell viability was assessed using replicate plates, plated at a density of 5,000 cells/well and incubated for 4 days, to determine the ATP content as a measure of cell viability using the cell-titer glo reagent (CTG; Promega Corporation, Madison, Wis.) as per manufacturer's instructions. The plates were read using a Victor luminescence plate reader (PerkinElmer Model 1420 Multilabel counter) and the relative luminescence units (RLU) data generated from each well was calculated as % inhibition of the untreated control wells and analyzed using XL-Fit module in Microsoft Excel to determine EC50 and EC90 (bDNA) and CC50 (CTG) values using a 4-parameter curve fitting algorithm.
Representative compounds of the invention were tested for their abilities to inhibit formation of relaxed circular DNA (rcDNA) in a HepDE19 assay, as described elsewhere herein.

The mark [1] stands for this setting: read-out: DE-19 bDNA EC50; HepDE19 cells, Tet-free medium, 7 day-incubation, rcDNA measured by Quantigene 2.0 bDNA assay, top concentration 25 μM.
Setting [2] is: HepDE19 cells, Tet-free medium, 7 day-incubation, rcDNA measured by Quantigene 2.0 bDNA assay, top concentration 25 μM; read-out: DE-19 bDNA EC50.
Where [3] appears, read: Hepatitis B virus, HepDE19, 168 h, HepDE19 cells, Tet-free medium, 7 day-incubation, rcDNA measured by Quantigene 2.0 bDNA assay, top concentration 25 μM; read-out: DE-19 bDNA EC50.

Regarding `COC(=O)NC1CCn2c(C(=O)Nc3ccc(F)c(Cl)c3)ccc21` (single isomer, unassigned) [Compound 38, Methyl (5-((3-chloro-4-fluorophenyl)carbamoyl)-2,3-dihydro-1H-pyrrolizin-1-yl)carbamate], the half-maximal effective concentration (EC50) under setting [1] worked out at 4700 nM.

Turning to `COC(=O)NC1CCn2c(C(=O)Nc3ccc(F)c(Cl)c3)ccc21` (single isomer, unassigned) [Compound 39, Methyl (5-((3-chloro-4-fluorophenyl)carbamoyl)-2,3-dihydro-1H-pyrrolizin-1-yl)carbamate], the EC50 under setting [1] turned out to be 15000 nM.

For the compound `Cn1cnc(COC(=O)NC2CCn3c(C(=O)Nc4ccc(F)c(Cl)c4)ccc32)n1` (single isomer, unassigned) [Compound 40, (1-Methyl-1H-1,2,4-triazol-3-yl)methyl (5-((3-chloro-4-fluorophenyl)carbamoyl)-2,3-dihydro-1H-pyrrolizin-1-yl)carbamate], the EC50 under setting [2] came to 6600 nM.

On to `Cn1cnc(COC(=O)NC2CCn3c(C(=O)Nc4ccc(F)c(Cl)c4)ccc32)n1` (single isomer, unassigned) [Compound 41, (1-Methyl-1H-1,2,4-triazol-3-yl)methyl (5-((3-chloro-4-fluorophenyl)carbamoyl)-2,3-dihydro-1H-pyrrolizin-1-yl)carbamate], for which the EC50 under setting [2] was not below 25000 nM.

On to `Cn1cnc(COC(=O)NC2CCc3c2c(Br)n(C)c3C(=O)Nc2ccc(F)c(Cl)c2)n1` (single isomer, unassigned) [Compound 47, (1-Methyl-1H-1,2,4-triazol-3-yl)methyl (3-bromo-1-((3-chloro-4-fluorophenyl)carbamoyl)-2-methyl-2,4,5,6-tetrahydrocyclopenta[c]pyrrol-4-yl)carbamate], for which the EC50 under setting [2] came out at 3100 nM.

With `Cn1cnc(COC(=O)NC2CCc3c2c(Br)n(C)c3C(=O)Nc2ccc(F)c(Cl)c2)n1` (single isomer, unassigned) [Compound 48, (1-Methyl-1H-1,2,4-triazol-3-yl)methyl (3-bromo-1-((3-chloro-4-fluorophenyl)carbamoyl)-2-methyl-2,4,5,6-tetrahydrocyclopenta[c]pyrrol-4-yl)carbamate], the EC50 under setting [2] was found to be 10 nM.

Turning to `Cn1cc2c(c1C(=O)Nc1ccc(F)c(Cl)c1)CCC2NC(=O)OCCC#N` (single isomer, unassigned) [Compound 49, 2-Cyanoethyl (1-((3-chloro-4-fluorophenyl)carbamoyl)-2-methyl-2,4,5,6-tetrahydrocyclopenta[c]pyrrol-4-yl)carbamate], under setting [2], the EC50 came out at 60 nM.

Take `Cn1cc2c(c1C(=O)Nc1ccc(F)c(Cl)c1)CCC2NC(=O)OCCC#N` (single isomer, unassigned) [Compound 50, 2-Cyanoethyl (1-((3-chloro-4-fluorophenyl)carbamoyl)-2-methyl-2,4,5,6-tetrahydrocyclopenta[c]pyrrol-4-yl)carbamate]: under setting [2], the EC50 turned out to be 3000 nM.

As for `Cn1cnc(COC(=O)NC2CCc3c2c(Cl)n(C)c3C(=O)Nc2ccc(F)c(Cl)c2)n1` (single isomer, unassigned) [Compound 51, (1-Methyl-1H-1,2,4-triazol-3-yl)methyl (3-chloro-1-((3-chloro-4-fluorophenyl)carbamoyl)-2-methyl-2,4,5,6-tetrahydrocyclopenta[c]pyrrol-4-yl)carbamate], the EC50 under setting [2] came to 10 nM.

In the case of `Cn1cnc(COC(=O)NC2CCc3c2c(Cl)n(C)c3C(=O)Nc2ccc(F)c(Cl)c2)n1` (single isomer, unassigned) [Compound 52, (1-Methyl-1H-1,2,4-triazol-3-yl)methyl (3-chloro-1-((3-chloro-4-fluorophenyl)carbamoyl)-2-methyl-2,4,5,6-tetrahydrocyclopenta[c]pyrrol-4-yl)carbamate], under setting [2], the EC50 was found to be 310 nM.

In the case of `Cn1cc2c(c1C(=O)Nc1ccc(F)c(Cl)c1)CCC2NC(=O)OCC1(C(N)=O)CC(F)(F)C1` (single isomer, unassigned) [Compound 55, (1-Carbamoyl-3,3-difluorocyclobutyl)methyl(1-((3-chloro-4-fluorophenyl)carbamoyl)-2-methyl-2,4,5,6-tetrahydrocyclopenta[c]pyrrol-4-yl)carbamate], under setting [2], the EC50 amounted to 4400 nM.

For the compound `Cn1cc2c(c1C(=O)Nc1ccc(F)c(Cl)c1)CCC2NC(=O)OCC1(C(N)=O)CC(F)(F)C1` (single isomer, unassigned) [Compound 56, (1-Carbamoyl-3,3-difluorocyclobutyl)methyl (1-((3-chloro-4-fluorophenyl)carbamoyl)-2-methyl-2,4,5,6-tetrahydrocyclopenta[c]pyrrol-4-yl)carbamate], the EC50 under setting [2] is 600 nM.

Regarding `Cn1cc2c(c1C(=O)Nc1ccc(F)c(Cl)c1)CCC2NC(=O)OCc1nc[nH]n1` (single isomer, unassigned) [Compound 57, (1H-1,2,4-Triazol-3-yl)methyl (1-((3-chloro-4-fluorophenyl)carbamoyl)-2-methyl-2,4,5,6-tetrahydrocyclopenta[c]pyrrol-4-yl)carbamate], the EC50 under setting [2] is 50 nM.

In the case of `Cn1cc2c(c1C(=O)Nc1ccc(F)c(Cl)c1)CCC2NC(=O)OCc1nc[nH]n1` (single isomer, unassigned) [Compound 58, (1H-1,2,4-Triazol-3-yl)methyl (1-((3-chloro-4-fluorophenyl)carbamoyl)-2-methyl-2,4,5,6-tetrahydrocyclopenta[c]pyrrol-4-yl)carbamate], the EC50 under setting [2] came to 970 nM.

For the compound `Cn1cc2c(c1C(=O)Nc1ccc(F)c(Cl)c1)CCC2NC(=O)OCc1c[nH]nn1` (single isomer, unassigned) [Compound 59, (1H-1,2,3-Triazol-4-yl)methyl (1-((3-chloro-4-fluorophenyl)carbamoyl)-2-methyl-2,4,5,6-tetrahydrocyclopenta[c]pyrrol-4-yl)carbamate], the EC50 under setting [2] was determined as 4200 nM.

Take `Cn1cc2c(c1C(=O)Nc1ccc(F)c(Cl)c1)CCC2NC(=O)OCc1c[nH]nn1` (single isomer, unassigned) [Compound 60, (1H-1,2,3-Triazol-4-yl)methyl (1-((3-chloro-4-fluorophenyl)carbamoyl)-2-methyl-2,4,5,6-tetrahydrocyclopenta[c]pyrrol-4-yl)carbamate]: the EC50 under setting [2] was 60 nM.

In the case of `Cc1cc(NC(=O)c2c3c(cn2C)C(NC(=O)OCc2ncn(C)n2)CC3)ccc1F` (single isomer, unassigned) [Compound 62, (1-methyl-1H-1,2,4-triazol-3-yl)methyl (1-((4-fluoro-3-methylphenyl)carbamoyl)-2-methyl-2,4,5,6-tetrahydrocyclopenta[c]pyrrol-4-yl)carbamate], the EC50 under setting [3] is 90 nM.

As to `Cn1cnc(COC(=O)NC2CCc3c2cn(C)c3C(=O)Nc2ccc(F)c(F)c2)n1` (single isomer, unassigned) [Compound 64, (1-methyl-1H-1,2,4-triazol-3-yl)methyl (1-((3,4-difluorophenyl)carbamoyl)-2-methyl-2,4,5,6-tetrahydrocyclopenta[c]pyrrol-4-yl)carbamate], the concentration for a half-maximal effect (EC50) under setting [3] amounted to 410 nM.

As to `Cn1cnc(COC(=O)NC2CCc3c2cn(C)c3C(=O)Nc2ccc(F)cc2)n1` (single isomer, unassigned) [Compound 65, (1-methyl-1H-1,2,4-triazol-3-yl)methyl (1-((4-fluorophenyl)carbamoyl)-2-methyl-2,4,5,6-tetrahydrocyclopenta[c]pyrrol-4-yl)carbamate], the EC50 under setting [3] was 810 nM.

Turning to `Cn1cnc(COC(=O)NC2CCc3c2cn(C)c3C(=O)Nc2cccc(F)c2)n1` (single isomer, unassigned) [Compound 66, (1-methyl-1H-1,2,4-triazol-3-yl)methyl (1-((3-fluorophenyl)carbamoyl)-2-methyl-2,4,5,6-tetrahydrocyclopenta[c]pyrrol-4-yl)carbamate], under setting [3], the EC50 is 900 nM.

For `Cn1cnc(COC(=O)NC2CCc3c2cn(C)c3C(=O)Nc2ccc(F)c(C#N)c2)n1` (single isomer, unassigned) [Compound 67, (1-methyl-1H-1,2,4-triazol-3-yl)methyl (1-((3-cyano-4-fluorophenyl)carbamoyl)-2-methyl-2,4,5,6-tetrahydrocyclopenta[c]pyrrol-4-yl)carbamate], the EC50 under setting [3] was 60 nM.

Turning to `Cn1cnc(COC(=O)NC2CCc3c2cn(C)c3C(=O)Nc2ccnc(Cl)c2)n1` (single isomer, unassigned) [Compound 68, (1-methyl-1H-1,2,4-triazol-3-yl)methyl (1-((2-chloropyridin-4-yl)carbamoyl)-2-methyl-2,4,5,6-tetrahydrocyclopenta[c]pyrrol-4-yl)carbamate], under setting [3], the EC50 was 660 nM.

The term EC50 denotes the midpoint of the concentration-response curve.
